# Assay results: ChEMBL document CHEMBL4190388, “Discovery and Optimization of Indolyl-Containing 4-Hydroxy-2-Pyridone Type II DNA Topoisomerase Inhibitors Active against Multidrug Resistant Gram-negative Bacteria” (J Med Chem, 2018)
# What was measured:
# Format in all cases: functional
# [1] = test system: Escherichia coli; assay: Antibacterial activity against fluoroquinolone resistant Escherichia coli SKM18 by CLSI M100-S17 protocol based method
# [2] = test system: Escherichia coli; assay: Antibacterial activity against wild type Escherichia coli ATCC 25922 by CLSI M100-S17 protocol based method
# [3] = test system: Acinetobacter baumannii; assay: Antibacterial activity against wild type Acinetobacter baumannii ATCC BAA-747 by CLSI M100-S17 protocol based method
# [4] = test system: Acinetobacter baumannii; assay: Antibacterial activity against fluoroquinolone resistant Acinetobacter baumannii isolate MMX2240 by CLSI M100-S17 protocol based method
# [5] = test system: Klebsiella pneumoniae; assay: Antibacterial activity against wild type Klebsiella pneumoniae ATCC 35657 by CLSI M100-S17 protocol based method
# [6] = test system: Escherichia coli; assay: Antibacterial activity against wild type Escherichia coli ATCC 25922 in presence of HSA by CLSI M100-S17 protocol based method
# [7] = test system: Escherichia coli; assay: Antibacterial activity against quinolone resistance Escherichia coli isolate ELZ4251 harboring gyrA/parC mutant by CLSI M100-S17 protocol based method
# [8] = test system: Escherichia coli; assay: Selectivity ratio of MIC for wild type Escherichia coli ATCC 25922 in presence of HSA to MIC for wild type Escherichia coli ATCC 25922
SMILES,MIC [1],MIC [2],MIC [3],MIC [4],MIC [5],MIC [6],MIC [7],Ratio [8]
COC1CCN(Cc2cc3cc4c(cc3n2C)OCCc2c-4[nH]c(=O)c(C(=O)O)c2O)C1 (stereo unspecified),2 µg/mL,3.9 µg/mL,3.9 µg/mL,7.8 µg/mL,15.6 µg/mL,7.8 µg/mL,–,–
CNCc1cc2cc3c(cc2n1C)SCCc1c-3[nH]c(=O)c(C(=O)O)c1O,0.49 µg/mL,1 µg/mL,3.9 µg/mL,7.8 µg/mL,1 µg/mL,7.8 µg/mL,1.6 µg/mL,8 - 16
CCc1c(-c2ccc3c(c2)cc(CNC(C)(C)C)n3C)[nH]c(=O)c(C(=O)O)c1O,6.3 µg/mL,0.78 µg/mL,0.78 µg/mL,6.3 µg/mL,0.78 µg/mL,1.6 µg/mL,6.3 µg/mL,–
CN(C)Cc1cc2cc3c(cc2n1C)COCc1c-3[nH]c(=O)c(C(=O)O)c1O,0.78 µg/mL,6.3 µg/mL,25 µg/mL,25 µg/mL,3.1 µg/mL,–,–,–
CN(C)Cc1cc2cc(-c3[nH]c(=O)c(C(=O)O)c(O)c3C3CC3)ccc2n1C,31.3 µg/mL,62.5 µg/mL,> 62.5 µg/mL,15.6 µg/mL,31.3 µg/mL,> 62.5 µg/mL,–,–
Cc1c(-c2ccc3c(c2)cc(CN(C)C)n3C)[nH]c(=O)c(C(=O)O)c1O,1.6 µg/mL,6.3 µg/mL,6.3 µg/mL,1.6 µg/mL,6.3 µg/mL,12.5 µg/mL,3.1 µg/mL,–
CCc1c(-c2ccc3c(c2)cc(CNC(C)C)n3C)[nH]c(=O)c(C(=O)O)c1O,1.6 µg/mL,0.39 µg/mL,0.78 µg/mL,3.1 µg/mL,0.39 µg/mL,1.6 µg/mL,3.1 µg/mL,–
CC(C)NCc1cc2cc3c(cc2n1C)SCCc1c-3[nH]c(=O)c(C(=O)O)c1O,1 µg/mL,2 µg/mL,2 µg/mL,3.9 µg/mL,2 µg/mL,15.6 µg/mL,3.1 µg/mL,8 - 16
CC(C)NCc1cc2cc3c(cc2n1C)COCc1c-3[nH]c(=O)c(C(=O)O)c1O,0.78 µg/mL,12.5 µg/mL,> 50 µg/mL,> 50 µg/mL,3.1 µg/mL,–,–,–
CNCc1cc2cc3c(cc2n1C)OCCc1c-3[nH]c(=O)c(C(=O)O)c1O,0.78 µg/mL,1.6 µg/mL,12.5 µg/mL,> 12.5 µg/mL,1.6 µg/mL,3.1 µg/mL,> 12.5 µg/mL,–
CN(C)Cc1cc2cc3c(cc2n1C)SCCc1c-3[nH]c(=O)c(C(=O)O)c1O,2 µg/mL,2 µg/mL,2 µg/mL,3.9 µg/mL,2 µg/mL,31.2 µg/mL,–,–
CC(C)NCc1cc2cc3c(cc2n1C)NCCc1c-3[nH]c(=O)c(C(=O)O)c1O,3.9 µg/mL,7.8 µg/mL,> 25 µg/mL,> 25 µg/mL,6.3 µg/mL,–,62.5 µg/mL,–
COCCNCc1cc2cc3c(cc2n1C)OCCc1c-3[nH]c(=O)c(C(=O)O)c1O,0.5 µg/mL,2 µg/mL,7.8 µg/mL,7.8 µg/mL,2 µg/mL,15.6 µg/mL,–,–
CCc1c(-c2ccc(N(C)C)cc2)[nH]c(=O)c(C(=O)O)c1O,15.6 µg/mL,0.78 µg/mL,1.6 µg/mL,6.3 µg/mL,3.1 µg/mL,> 62.5 µg/mL,15.6 µg/mL,–
CCNCc1cc2cc3c(cc2n1C)NCCc1c-3[nH]c(=O)c(C(=O)O)c1O,3.9 µg/mL,15.6 µg/mL,> 25 µg/mL,> 25 µg/mL,6.3 µg/mL,–,> 62.5 µg/mL,–
CN(C)CCNCc1cc2cc3c(cc2n1C)OCCc1c-3[nH]c(=O)c(C(=O)O)c1O,7.8 µg/mL,> 62.5 µg/mL,> 62.5 µg/mL,> 62.5 µg/mL,31.3 µg/mL,62.5 µg/mL,–,–
CCc1c(-c2ccc3c(ccn3C)c2)[nH]c(=O)c(C(=O)O)c1O,3.1 µg/mL,0.78 µg/mL,0.78 µg/mL,0.78 µg/mL,3.1 µg/mL,> 62.5 µg/mL,6.3 µg/mL,>40
CCc1c(-c2ccc3c(c2)cc(C)n3C)[nH]c(=O)c(C(=O)O)c1O,> 62.5 µg/mL,1.6 µg/mL,–,–,–,> 62.5 µg/mL,62.5 µg/mL,>40
